Results published in article PMC5428567, “Pentameric ligand-gated ion channels exhibit distinct transmembrane domain archetypes for folding/expression and function” (Scientific Reports, 2017).

Legend:
[1] = target: T1, ELIC W219A + F303A (Dickeya chrysanthemi, UniProt P0C7B7, F303A/W219A); experiment: TEVC cysteamine-induced current, ELIC W219A + F303A; format: cell-based; conditions: Xenopus laevis oocytes; ±SD; n=8
T1 construct: expressed in transfected cells; host or cells: Xenopus laevis oocytes injected with cRNA (pTLN plasmid)
Excerpt: (§1) To examine how different physical interactions at the M4-M1/M3 interface in both GLIC and ELIC (Fig. 1) influence function, we mutated each residue to Ala, and characterized how each mutation influenced agonist-induced channel gating using two-electrode voltage clamp electrophysiology. Both GLIC and ELIC are cation-selective ion channels that transiently gate open in response to agonist binding, although GLIC responds to protons while ELIC responds to primary amines, such as cysteamine, [34].
(§2) Stage V–VI oocytes were collected as previously described, injected with cRNA, and allowed to incubate one to four days at 16 °C in ND96 + buffer (5 mM HEPES, 96 mM NaCl, 2 mM KCl, 1 mM MgCl2, 1 mM CaCl2, and 2 mM Pyruvate). Whole cell currents were recorded using a two-electrode voltage clamp apparatus (OC-725C oocyte clamp; Holliston, MA). For GLIC, whole cell currents were recorded from injected oocytes (3–20 ng cRNA) immersed in MES buffer (140 mM NaCl, 2.8 mM KCl, 2 mM MgCl2, and 10 mM MES). Currents through the plasma membrane in response to pH jumps (pH 7.3 down to the indicated pH values) were measured with the transmembrane voltage clamped at voltages between −20 mV and −40 mV depending on the level of expression, typically −20 mV. […]

[2] = target: T2, ELIC W219A + F307A (Dickeya chrysanthemi, UniProt P0C7B7, F307A/W219A); experiment: TEVC cysteamine-induced current, ELIC W219A + F307A; format: cell-based; conditions: Xenopus laevis oocytes; ±SD; n=8
T2 construct: expressed in transfected cells; host or cells: Xenopus laevis oocytes injected with cRNA (pTLN plasmid)
Excerpt: as §1, §2

[3] = target: T3, ELIC F222A + C299A (Dickeya chrysanthemi, UniProt P0C7B7, C299A/F222A); experiment: TEVC cysteamine-induced current, ELIC F222A + C299A; format: cell-based; conditions: Xenopus laevis oocytes; ±SD; n=8
T3 construct: expressed in transfected cells; host or cells: Xenopus laevis oocytes injected with cRNA (pTLN plasmid)
Excerpt: as §1, §2

[4] = target: T4, ELIC W223A + R300A (Dickeya chrysanthemi, UniProt P0C7B7, R300A/W223A); experiment: TEVC cysteamine-induced current, ELIC W223A + R300A; format: cell-based; conditions: Xenopus laevis oocytes; ±SD; n=8
T4 construct: expressed in transfected cells; host or cells: Xenopus laevis oocytes injected with cRNA (pTLN plasmid)
Excerpt: as §1, §2

[5] = target: T5, ELIC S271A + F303A (Dickeya chrysanthemi, UniProt P0C7B7, F303A/S271A); experiment: TEVC cysteamine-induced current, ELIC S271A + F303A; format: cell-based; conditions: Xenopus laevis oocytes; ±SD; n=8
T5 construct: expressed in transfected cells; host or cells: Xenopus laevis oocytes injected with cRNA (pTLN plasmid)
Excerpt: as §1, §2

[6] = target: T6, ELIC S271A + F307A (Dickeya chrysanthemi, UniProt P0C7B7, F307A/S271A); experiment: TEVC cysteamine-induced current, ELIC S271A + F307A; format: cell-based; conditions: Xenopus laevis oocytes; ±SD; n=8
T6 construct: expressed in transfected cells; host or cells: Xenopus laevis oocytes injected with cRNA (pTLN plasmid)
Excerpt: as §1, §2

[7] = system: ELIC F303A; parameters: method as in Henault et al.[9], [18], [29]; conditions: Xenopus laevis oocytes; ±SD; n=10; ref Henault et al.[9], [18], [29]; cited from earlier work
[8] = system: ELIC F307A; parameters: method as in Henault et al.[9], [18], [29]; conditions: Xenopus laevis oocytes; ±SD; n=8; ref Henault et al.[9], [18], [29]; cited from earlier work
[9] = system: ELIC R300A; parameters: method as in Henault et al.[9], [18], [29]; conditions: Xenopus laevis oocytes; ±SD; n=11; ref Henault et al.[9], [18], [29]; cited from earlier work
[10] = system: ELIC C299A; parameters: method as in Henault et al.[9], [18], [29]; conditions: Xenopus laevis oocytes; ±SD; n=9; ref Henault et al.[9], [18], [29]; cited from earlier work
[11] = system: ELIC L295A; parameters: method as in Henault et al.[9], [18], [29]; conditions: Xenopus laevis oocytes; ±SD; n=8; ref Henault et al.[9], [18], [29]; cited from earlier work
[12] = system: ELIC I296A; parameters: method as in Henault et al.[9], [18], [29]; conditions: Xenopus laevis oocytes; ±SD; n=10; ref Henault et al.[9], [18], [29]; cited from earlier work
[13] = system: ELIC I310A; parameters: method as in Henault et al.[9], [18], [29]; conditions: Xenopus laevis oocytes; ±SD; n=10; ref Henault et al.[9], [18], [29]; cited from earlier work
[14] = system: ELIC G311A; parameters: method as in Henault et al.[9], [18], [29]; conditions: Xenopus laevis oocytes; ±SD; n=11; ref Henault et al.[9], [18], [29]; cited from earlier work
[15] = system: ELIC L314A; parameters: method as in Henault et al.[9], [18], [29]; conditions: Xenopus laevis oocytes; ±SD; n=8; ref Henault et al.[9], [18], [29]; cited from earlier work
[16] = system: ELIC V315A; parameters: method as in Henault et al.[9], [18], [29]; conditions: Xenopus laevis oocytes; ±SD; n=9; ref Henault et al.[9], [18], [29]; cited from earlier work
[17] = system: ELIC G318A; parameters: method as in Henault et al.[9], [18], [29]; conditions: Xenopus laevis oocytes; ±SD; n=10; ref Henault et al.[9], [18], [29]; cited from earlier work
[18] = system: ELIC I319A; parameters: method as in Henault et al.[9], [18], [29]; conditions: Xenopus laevis oocytes; ±SD; n=11; ref Henault et al.[9], [18], [29]; cited from earlier work

T6 sequence (P0C7B7 whole entry S271A/F307A): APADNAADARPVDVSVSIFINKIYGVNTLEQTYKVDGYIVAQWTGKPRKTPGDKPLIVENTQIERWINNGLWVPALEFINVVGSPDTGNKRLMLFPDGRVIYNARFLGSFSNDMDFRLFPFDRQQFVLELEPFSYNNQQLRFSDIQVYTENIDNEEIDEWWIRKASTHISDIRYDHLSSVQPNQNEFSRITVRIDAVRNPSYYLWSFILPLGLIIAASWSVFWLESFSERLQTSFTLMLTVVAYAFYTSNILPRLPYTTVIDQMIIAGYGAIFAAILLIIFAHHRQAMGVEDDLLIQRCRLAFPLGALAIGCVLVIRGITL
T4 sequence (P0C7B7 whole entry W223A/R300A): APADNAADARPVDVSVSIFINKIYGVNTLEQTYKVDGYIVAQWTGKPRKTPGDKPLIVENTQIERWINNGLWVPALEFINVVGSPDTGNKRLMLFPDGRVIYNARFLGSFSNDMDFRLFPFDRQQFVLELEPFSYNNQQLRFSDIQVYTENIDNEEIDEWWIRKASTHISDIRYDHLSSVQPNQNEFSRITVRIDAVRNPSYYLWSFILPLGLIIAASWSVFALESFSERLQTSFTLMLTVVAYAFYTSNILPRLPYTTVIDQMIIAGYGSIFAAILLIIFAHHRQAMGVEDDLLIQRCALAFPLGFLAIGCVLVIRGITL
T5 sequence (P0C7B7 whole entry S271A/F303A): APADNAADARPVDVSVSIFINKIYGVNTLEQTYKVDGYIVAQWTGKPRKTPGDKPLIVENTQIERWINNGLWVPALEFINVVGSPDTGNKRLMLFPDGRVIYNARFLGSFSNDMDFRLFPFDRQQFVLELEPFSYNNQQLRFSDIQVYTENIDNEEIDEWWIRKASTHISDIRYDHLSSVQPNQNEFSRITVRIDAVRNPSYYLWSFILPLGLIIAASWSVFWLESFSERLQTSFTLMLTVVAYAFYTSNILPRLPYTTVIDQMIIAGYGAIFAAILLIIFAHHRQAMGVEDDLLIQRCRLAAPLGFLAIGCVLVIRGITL
T3 sequence (P0C7B7 whole entry F222A/C299A): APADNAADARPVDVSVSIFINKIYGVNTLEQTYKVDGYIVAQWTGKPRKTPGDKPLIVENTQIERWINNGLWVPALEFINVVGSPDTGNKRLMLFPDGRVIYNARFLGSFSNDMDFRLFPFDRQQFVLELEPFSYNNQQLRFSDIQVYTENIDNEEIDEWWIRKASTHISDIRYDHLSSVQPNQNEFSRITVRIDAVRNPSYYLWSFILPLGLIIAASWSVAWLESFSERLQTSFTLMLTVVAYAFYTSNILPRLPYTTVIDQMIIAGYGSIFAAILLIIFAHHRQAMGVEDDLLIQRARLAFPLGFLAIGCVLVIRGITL
T2 sequence (P0C7B7 whole entry W219A/F307A): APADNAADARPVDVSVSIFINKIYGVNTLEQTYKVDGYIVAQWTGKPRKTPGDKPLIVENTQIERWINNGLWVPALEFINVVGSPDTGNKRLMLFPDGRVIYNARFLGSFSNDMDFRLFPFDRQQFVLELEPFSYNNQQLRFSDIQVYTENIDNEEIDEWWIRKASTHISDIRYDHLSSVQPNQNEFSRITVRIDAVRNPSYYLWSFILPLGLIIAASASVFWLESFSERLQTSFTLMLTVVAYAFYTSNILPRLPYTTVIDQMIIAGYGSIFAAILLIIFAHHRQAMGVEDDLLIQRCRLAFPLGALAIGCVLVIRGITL
T1 sequence (P0C7B7 whole entry W219A/F303A): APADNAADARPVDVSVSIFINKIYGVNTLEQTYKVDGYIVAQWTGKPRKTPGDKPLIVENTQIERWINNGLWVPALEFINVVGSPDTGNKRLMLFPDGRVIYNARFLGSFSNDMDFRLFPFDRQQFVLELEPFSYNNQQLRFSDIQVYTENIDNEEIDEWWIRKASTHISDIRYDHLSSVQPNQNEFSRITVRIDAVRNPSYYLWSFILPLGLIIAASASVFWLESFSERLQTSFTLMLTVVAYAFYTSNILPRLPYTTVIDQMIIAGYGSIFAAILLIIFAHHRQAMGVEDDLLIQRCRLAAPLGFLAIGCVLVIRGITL

## NCCS [cysteamine]
[1]
  −logEC50: 3.26 ± 0.10
[2]
  EC50: 450 ± 70 µM
  −logEC50: 3.35 ± 0.07
[3]
  EC50: 100 ± 20 µM
  −logEC50: 4.00 ± 0.09
[4]
  EC50: 800 ± 110 µM
  −logEC50: 3.10 ± 0.05
[5]
  EC50: 620 ± 130 µM
  −logEC50: 3.21 ± 0.09
[6]
  EC50: 770 ± 90 µM
  −logEC50: 3.11 ± 0.05
[7]
  EC50: 190 ± 70 µM
  −logEC50: 3.73 ± 0.17
[8]
  EC50: 570 ± 90 µM
  −logEC50: 3.24 ± 0.07
[9]
  EC50: 400 ± 50 µM
  −logEC50: 3.40 ± 0.05
[10]
  EC50: 560 ± 80 µM
  −logEC50: 3.25 ± 0.06
[11]
  EC50: 500 ± 100 µM
  −logEC50: 3.30 ± 0.09
[12]
  EC50: 270 ± 30 µM
  −logEC50: 3.57 ± 0.05
[13]
  EC50: 880 ± 90 µM
  −logEC50: 3.05 ± 0.04
[14]
  EC50: 510 ± 100 µM
  −logEC50: 3.29 ± 0.09
[15]
  EC50: 420 ± 50 µM
  −logEC50: 3.38 ± 0.05
[16]
  EC50: 600 ± 80 µM
  −logEC50: 3.22 ± 0.06
[17]
  EC50: 760 ± 130 µM
  −logEC50: 3.12 ± 0.08
[18]
  EC50: 860 ± 160 µM
  −logEC50: 3.06 ± 0.08
